Laboratory results reported in US20230150974A1 (Foghorn Therapeutics Inc., priority 2020, published 2023).

How the values were obtained:
[1] = target: T1, HiBiT-BRM (Homo sapiens, UniProt P51531); assay: HiBiT-BRM cell-based degradation assay (Nano-Glo HiBiT Lytic Detection); details: HeLa cells expressing HiBiT-BRM, 24 h; for DC50: read-out: BRM HiBit Degradation IC50
T1 construct: expressed in transfected cells
Summary of the method: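 Luminescence from HiBiT–LgBiT complementation in lysates of a stable HiBiT-BRM HeLa line measured after 24 h compound exposure. Degradation expressed as percent relative to DMSO-treated cells and cells given 2 μM of a known BRM/BRG1 degrader.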

[2] = target: T2, HiBit-BRG1 (Homo sapiens, UniProt P51532); assay: HiBit-BRG1 cell-based degradation assay (Nano-Glo HiBiT Lytic Detection); details: HeLa cells expressing HiBit-BRG1 and LgBit, 24 h; for DC50: read-out: BRG1 HiBit Degradation IC50; for Dmax: read-out: BRG1 HiBit Degradation Maximum (%)
T2 construct: expressed in transfected cells
T2 sequence (P51532 whole entry): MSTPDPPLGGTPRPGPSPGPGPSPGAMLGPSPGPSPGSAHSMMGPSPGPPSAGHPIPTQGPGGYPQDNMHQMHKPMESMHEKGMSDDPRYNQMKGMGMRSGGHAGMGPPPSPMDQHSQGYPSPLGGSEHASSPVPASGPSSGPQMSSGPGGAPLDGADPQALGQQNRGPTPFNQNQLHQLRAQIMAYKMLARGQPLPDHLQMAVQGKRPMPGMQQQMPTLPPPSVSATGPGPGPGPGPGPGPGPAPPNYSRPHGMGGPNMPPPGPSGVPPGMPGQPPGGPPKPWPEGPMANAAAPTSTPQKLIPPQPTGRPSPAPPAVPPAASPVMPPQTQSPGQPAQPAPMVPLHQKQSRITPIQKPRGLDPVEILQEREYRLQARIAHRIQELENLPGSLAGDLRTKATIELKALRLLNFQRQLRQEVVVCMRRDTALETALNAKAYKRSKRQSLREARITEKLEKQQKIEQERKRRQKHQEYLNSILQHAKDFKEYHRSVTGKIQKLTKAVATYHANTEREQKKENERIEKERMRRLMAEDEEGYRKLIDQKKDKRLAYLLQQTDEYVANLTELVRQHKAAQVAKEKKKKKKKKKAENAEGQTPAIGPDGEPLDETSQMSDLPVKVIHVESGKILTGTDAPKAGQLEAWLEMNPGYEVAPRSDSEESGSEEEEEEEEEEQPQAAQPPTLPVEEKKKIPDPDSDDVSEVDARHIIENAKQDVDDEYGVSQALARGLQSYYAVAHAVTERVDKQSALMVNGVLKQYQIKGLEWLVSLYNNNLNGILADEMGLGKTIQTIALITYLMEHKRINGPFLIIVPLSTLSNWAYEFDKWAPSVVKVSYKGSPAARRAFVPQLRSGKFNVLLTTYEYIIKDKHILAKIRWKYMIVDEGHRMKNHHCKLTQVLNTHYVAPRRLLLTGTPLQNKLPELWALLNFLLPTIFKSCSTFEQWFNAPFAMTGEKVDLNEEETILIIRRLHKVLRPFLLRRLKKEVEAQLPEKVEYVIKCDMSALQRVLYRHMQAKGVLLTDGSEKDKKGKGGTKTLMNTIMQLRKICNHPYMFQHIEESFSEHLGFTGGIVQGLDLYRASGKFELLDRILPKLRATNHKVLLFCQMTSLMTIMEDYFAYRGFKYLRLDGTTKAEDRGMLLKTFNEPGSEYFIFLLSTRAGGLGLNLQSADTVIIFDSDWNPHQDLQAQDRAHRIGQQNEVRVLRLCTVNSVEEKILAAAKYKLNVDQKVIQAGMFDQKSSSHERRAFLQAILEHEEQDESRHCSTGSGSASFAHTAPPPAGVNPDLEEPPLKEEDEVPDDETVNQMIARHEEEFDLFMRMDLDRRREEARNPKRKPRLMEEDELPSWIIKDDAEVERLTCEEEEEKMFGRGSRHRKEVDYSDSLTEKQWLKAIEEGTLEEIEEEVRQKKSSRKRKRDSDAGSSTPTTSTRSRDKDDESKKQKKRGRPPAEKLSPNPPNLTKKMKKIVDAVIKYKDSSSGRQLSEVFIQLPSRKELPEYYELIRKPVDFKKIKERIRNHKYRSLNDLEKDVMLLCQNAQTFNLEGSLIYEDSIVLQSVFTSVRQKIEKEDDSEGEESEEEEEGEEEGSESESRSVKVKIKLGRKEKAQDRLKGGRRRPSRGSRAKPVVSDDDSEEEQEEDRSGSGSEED
Summary of the method: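 Luminescence from Nano-Glo HiBiT lytic detection, read after 24 h compound exposure, scored degradation in a stable HeLa HiBiT-BRG1/LgBit line seeded at 5000 cells/well. DMSO wells defined 0% and 2 μM known BRM/BRG1 degrader wells defined full degradation.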

T1 sequence (P51531 whole entry): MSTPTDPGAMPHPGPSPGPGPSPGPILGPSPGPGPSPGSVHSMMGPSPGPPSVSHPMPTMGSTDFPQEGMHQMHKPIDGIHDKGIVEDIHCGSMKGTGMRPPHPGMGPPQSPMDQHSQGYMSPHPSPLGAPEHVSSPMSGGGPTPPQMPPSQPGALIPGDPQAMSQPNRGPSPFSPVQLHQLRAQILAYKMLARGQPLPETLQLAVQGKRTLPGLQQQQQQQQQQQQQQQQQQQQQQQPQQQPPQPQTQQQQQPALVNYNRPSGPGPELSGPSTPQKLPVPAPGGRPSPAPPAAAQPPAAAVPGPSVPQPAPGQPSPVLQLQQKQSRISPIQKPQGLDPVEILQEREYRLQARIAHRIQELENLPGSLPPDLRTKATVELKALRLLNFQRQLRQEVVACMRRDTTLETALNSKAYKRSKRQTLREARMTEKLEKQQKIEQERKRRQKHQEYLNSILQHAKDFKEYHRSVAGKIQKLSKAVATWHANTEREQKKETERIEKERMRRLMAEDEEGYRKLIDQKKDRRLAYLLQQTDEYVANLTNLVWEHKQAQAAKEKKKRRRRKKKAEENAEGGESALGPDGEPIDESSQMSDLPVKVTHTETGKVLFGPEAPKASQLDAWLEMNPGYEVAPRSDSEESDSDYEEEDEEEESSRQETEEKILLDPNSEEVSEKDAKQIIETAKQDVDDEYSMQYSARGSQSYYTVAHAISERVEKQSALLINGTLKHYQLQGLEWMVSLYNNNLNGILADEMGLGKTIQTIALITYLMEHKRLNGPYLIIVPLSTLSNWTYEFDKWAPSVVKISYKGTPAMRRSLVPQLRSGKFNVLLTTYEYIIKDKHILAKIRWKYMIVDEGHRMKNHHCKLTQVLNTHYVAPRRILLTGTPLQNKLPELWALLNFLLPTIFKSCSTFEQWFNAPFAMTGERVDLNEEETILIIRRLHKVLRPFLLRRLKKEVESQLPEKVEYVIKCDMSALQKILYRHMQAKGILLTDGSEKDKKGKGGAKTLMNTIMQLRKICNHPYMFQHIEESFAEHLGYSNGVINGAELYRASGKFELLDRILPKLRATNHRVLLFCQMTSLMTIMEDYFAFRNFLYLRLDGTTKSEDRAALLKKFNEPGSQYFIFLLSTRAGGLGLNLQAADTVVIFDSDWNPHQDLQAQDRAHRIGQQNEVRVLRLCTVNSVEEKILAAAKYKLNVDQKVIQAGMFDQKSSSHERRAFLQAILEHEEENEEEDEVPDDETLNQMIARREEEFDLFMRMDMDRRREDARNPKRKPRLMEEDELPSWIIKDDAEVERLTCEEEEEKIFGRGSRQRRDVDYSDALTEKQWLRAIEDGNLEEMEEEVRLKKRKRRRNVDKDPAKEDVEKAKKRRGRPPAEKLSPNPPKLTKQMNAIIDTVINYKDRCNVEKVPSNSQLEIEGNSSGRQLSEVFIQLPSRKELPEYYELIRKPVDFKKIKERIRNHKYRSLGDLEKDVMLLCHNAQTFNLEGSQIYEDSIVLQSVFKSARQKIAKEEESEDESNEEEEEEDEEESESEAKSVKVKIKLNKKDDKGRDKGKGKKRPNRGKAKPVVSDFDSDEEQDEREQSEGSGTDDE

SMILES	BRM HiBit Degradation Maximum (%) [1]	DC50 [1]	DC50 [2]	Dmax [2]
Cc1ncsc1-c1ccc(CNC(=O)[C@@H]2C[C@@H](O)CN2C(=O)[C@@H](NC(=O)CCC(=O)NCc2ccc(CCOc3cc(-c4ccccc4O)nnc3N)cc2)C(C)(C)C)cc1 [Compound 29, N′-[[4-(2-[[3-amino-6-(2-hydroxyphenyl)pyridazin-4-yl]oxy]ethyl)phenyl]methyl]-N-[(2S)-1-[(2S,4R)-4-hydroxy-2-([[4-(4-methyl-1,3-thiazol-5-yl)phenyl]methyl]carbamoyl)pyrrolidin-1-yl]-3,3-dimethyl-1-oxobutan-2-yl]succinamide]	B (“B” indicates maximum degradation ≥50%)	> 1000 nM	> 1000 nM	< 50%
Nc1nnc(-c2ccccc2O)cc1N1CCN(C(=O)C2CC2CNC(=O)COc2ccc3c(c2)C(=O)N(C2CCC(=O)NC2=O)C3=O)CC1 (centres unmarked) [Compound 78, N-[(2-[4-[3-amino-6-(2-hydroxyphenyl)pyridazin-4-yl]piperazine-1-carbonyl]cyclopropyl)methyl]-2-[[2-(2,6-dioxopiperidin-3-yl)-1,3-dioxoisoindol-5-yl]oxy]acetamide]	C (“C” indicates maximum degradation <50%)	> 1000 nM	> 1000 nM	
Cc1ncsc1-c1ccc(CNC(=O)[C@@H]2C[C@@H](O)CN2C(=O)[C@@H](NC(=O)CN2CCC(O[C@H]3C[C@H](Oc4cc(N5[C@@H]6CC[C@H]5CN(c5cc(-c7ccccc7O)nnc5N)C6)ccn4)C3)CC2)C(C)(C)C)cc1 [Compound 243, (2S,4R)-1-((2S)-2-(2-(4-((1r,3S)-3-((4-(3-(3-amino-6-(2-hydroxyphenyl)pyridazin-4-yl)-3,8-diazabicyclo[3.2.1]octan-8-yl)pyridin-2-yl)oxy)cyclobutoxy)piperidin-1-yl)acetamido)-3,3-dimethylbutanoyl)-4-hydroxy-N-(4-(4-methylthiazol-5-yl)benzyl)pyrrolidine-2-carboxamide, tri-formic acid]	A (“A” indicates maximum degradation ≥75%)	< 10 nM	> 10 nM	> 75%
Cc1ncsc1-c1ccc(CNC(=O)[C@H]2C[C@H](O)CN2C(=O)[C@H](NC(=O)CCCCCNC(=O)c2ccc(CCOc3cc(-c4ccccc4O)nnc3N)cc2)C(C)(C)C)cc1 (stereo in doubt) [Compound 53, (2R,4S)-1-((R)-2-(6-(4-(2-((3-amino-6-(2-hydroxyphenyl)pyridazin-4-yl)oxy)ethyl)benzamido)hexanamido)-3,3-dimethylbutanoyl)-4-hydroxy-N-(4-(4-methylthiazol-5-yl)benzyl)pyrrolidine-2-carboxamide]	C (“C” indicates maximum degradation <50%)	> 1000 nM	> 1000 nM	< 50%
Nc1nnc(-c2ccccc2O)cc1OCCc1ccc(CNCCCCCNc2ccc3c(c2)C(=O)N(C2CCC(=O)NC2=O)C3=O)cc1 (centres unmarked) [Compound 117, 5-[[5-([[4-(2-[[3-amino-6-(2-hydroxyphenyl)pyridazin-4-yl]oxy]ethyl)phenyl]methyl]amino)pentyl]amino]-2-(2,6-dioxopiperidin-3-yl)isoindole-1,3-dione]	B (“B” indicates maximum degradation ≥50%)	> 1000 nM	> 1000 nM	> 75%
Cc1ncsc1-c1ccc([C@H](C)NC(=O)[C@@H]2C[C@@H](O)CN2C(=O)[C@@H](c2cc(OCCN3CCN(c4cc(-c5ccccc5O)nnc4N)CC3)no2)C(C)C)cc1 [Compound 217, (2S,4R)-1-((R)-2-(3-(2-(4-(3-amino-6-(2-hydroxyphenyl)pyridazin-4-yl)piperazin-1-yl)ethoxy)isoxazol-5-yl)-3-methylbutanoyl)-4-hydroxy-N-((S)-1-(4-(4-methylthiazol-5-yl)phenyl)ethyl)pyrrolidine-2-carboxamide]	A (“A” indicates maximum degradation ≥75%)	> 10 nM	> 1000 nM	< 50%
Cc1ncsc1-c1ccc(CNC(=O)[C@@H]2C[C@@H](O)CN2C(=O)[C@@H](NC(=O)CCCCCCCCCCCCCCCC(=O)NCc2ccc(CCOc3cc(-c4ccccc4O)nnc3N)cc2)C(C)(C)C)cc1 [Compound 32, N1-(4-(2-((3-amino-6-(2-hydroxyphenyl)pyridazin-4-yl)oxy)ethyl)benzyl)-N17-((S)-1-((2S,4R)-4-hydroxy-2-((4-(4-methylthiazol-5-yl)benzyl)carbamoyl)pyrrolidin-1-yl)-3,3-dimethyl-1-oxobutan-2-yl)heptadecanediamide]	A (“A” indicates maximum degradation ≥75%)	> 10 nM	> 1000 nM	< 50%
Nc1nnc(-c2ccccc2O)cc1OCCc1ccc(C(=O)NCCCCNc2ccc3c(c2)C(=O)N(C2CCC(=O)NC2=O)C3=O)cc1 (centres unmarked) [Compound 42, 4-(2-[[3-amino-6-(2-hydroxyphenyl)pyridazin-4-yl]oxy]ethyl)-N-(4-[[2-(2,6-dioxopiperidin-3-yl)-1,3-dioxoisoindol-5-yl]amino]butyl)benzamide]	C (“C” indicates maximum degradation <50%)	> 1000 nM	> 1000 nM	< 50%
Nc1nnc(-c2ccccc2O)cc1OCCc1ccc(C(=O)NCCCCCCCCNc2cccc3c2C(=O)N(C2CCC(=O)NC2=O)C3=O)cc1 (centres unmarked) [Compound 44, 4-(2-((3-amino-6-(2-hydroxyphenyl)pyridazin-4-yl)oxy)ethyl)-N-(8-((2-(2,6-dioxopiperidin-3-yl)-1,3-dioxoisoindolin-4-yl)amino)octyl)benzamide]	B (“B” indicates maximum degradation ≥50%)	> 100 nM	> 1000 nM	< 50%
Cc1ncsc1-c1ccc(CNC(=O)[C@@H]2C[C@@H](O)CN2C(=O)[C@@H](NC(=O)CCCCCCCCCNC(=O)CN2CCN(c3cc(-c4ccccc4O)nnc3N)CC2)C(C)(C)C)cc1 [Compound 102, (2S,4R)-1-[(2S)-2-[10-(2-[4-[3-amino-6-(2-hydroxyphenyl)pyridazin-4-yl]piperazin-1-yl]acetamido)decanamido]-3,3-dimethylbutanoyl]-4-hydroxy-N-[[4-(4-methyl-1,3-thiazol-5-yl)phenyl]methyl]pyrrolidine-2-carboxamide]	A (“A” indicates maximum degradation ≥75%)	> 100 nM	> 1000 nM	< 50%
Cc1ncsc1-c1ccc(CNC(=O)[C@@H]2C[C@@H](O)CN2C(=O)[C@@H](NC(=O)CCCCCCCCCNCc2ccc(CCN(C)c3cc(-c4ccccc4O)nnc3N)cc2)C(C)(C)C)cc1 [Compound 131, (2S,4R)-1-((S)-2-(10-((4-(2-((3-amino-6-(2-hydroxyphenyl)pyridazin-4-yl)(methyl)amino)ethyl)benzyl)amino)decanamido)-3,3-dimethylbutanoyl)-4-hydroxy-N-(4-(4-methylthiazol-5-yl)benzyl)pyrrolidine-2-carboxamide]	A (“A” indicates maximum degradation ≥75%)	> 100 nM	> 100 nM	> 50%
CN(CCNC(=O)COc1cccc2c1C(=O)N(C1CCC(=O)NC1=O)C2=O)CCNC(=O)c1ccc(CCOc2cc(-c3ccccc3O)nnc2N)cc1 (centres unmarked) [Compound 58, N-[2-[(2-[[4-(2-[[3-amino-6-(2-hydroxyphenyl)pyridazin-4-yl]oxy]ethyl)phenyl]formamido]ethyl)(methyl)amino]ethyl]-2-[[2-(2,6-dioxopiperidin-3-yl)-1,3-dioxoisoindol-4-yl]oxy]acetamide]	C (“C” indicates maximum degradation <50%)	> 1000 nM	> 1000 nM	< 50%
Cc1ncsc1-c1ccc([C@H](C)NC(=O)[C@@H]2C[C@@H](O)CN2C(=O)[C@@H](NC(=O)CCCCCCCCCC(=O)NCc2ccc(CCOc3cc(-c4ccccc4O)nnc3N)cc2)C(C)(C)C)cc1 [Compound 198, N1-(4-(2-((3-amino-6-(2-hydroxyphenyl)pyridazin-4-yl)oxy)ethyl)benzyl)-N11-((S)-1-((2S,4R)-4-hydroxy-2-(((S)-1-(4-(4-methylthiazol-5-yl)phenyl)ethyl)carbamoyl)pyrrolidin-1-yl)-3,3-dimethyl-1-oxobutan-2-yl)undecanediamide]	A (“A” indicates maximum degradation ≥75%)	> 10 nM	> 1000 nM	< 50%
Cc1ncsc1-c1ccc(CNC(=O)[C@@H]2C[C@@H](O)CN2C(=O)[C@@H](NC(=O)COCCOCC(=O)NCc2ccc(CCOc3cc(-c4ccccc4O)nnc3N)cc2)C(C)(C)C)cc1 [Compound 164, (2S,4R)-1-((S)-1-(4-(2-((3-amino-6-(2-hydroxyphenyl)pyridazin-4-yl)oxy)ethyl)phenyl)-12-(tert-butyl)-3,10-dioxo-5,8-dioxa-2,11-diazatridecan-13-oyl)-4-hydroxy-N-(4-(4-methylthiazol-5-yl)benzyl)pyrrolidine-2-carboxamide]	B (“B” indicates maximum degradation ≥50%)	> 1000 nM	> 1000 nM	< 50%
Cc1ncsc1-c1ccc([C@H](C)NC(=O)[C@@H]2C[C@@H](O)CN2C(=O)[C@@H](NC(=O)CCCCCCCCCCCCCCC(=O)NCc2ccc(CCOc3cc(-c4ccccc4O)nnc3N)cc2)C(C)(C)C)cc1 [Compound 214, N1-(4-(2-((3-amino-6-(2-hydroxyphenyl)pyridazin-4-yl)oxy)ethyl)benzyl)-N16-((S)-1-((2S,4R)-4-hydroxy-2-(((S)-1-(4-(4-methylthiazol-5-yl)phenyl)ethyl)carbamoyl)pyrrolidin-1-yl)-3,3-dimethyl-1-oxobutan-2-yl)hexadecanediamide]	A (“A” indicates maximum degradation ≥75%)	> 10 nM	> 1000 nM	< 50%
